Assay results reported in US11203601B2, “Tricyclic compounds as glycogen synthase kinase 3 (GSK3) inhibitors and uses thereof” (The Broad Institute, Inc., priority 2017, dated 2021).

How the values were obtained:
Experiment in all cases: Carna kinome panel
Assay type in all cases: biochemical
BLK = BLK (Homo sapiens (Human), UniProt P51451); conditions: read-out: % Inhibition at 10 μM of the test compound
SPHK1 = SPHK1 (Homo sapiens (Human), UniProt Q9NYA1); conditions: read-out: % Inhibition at 10 μM of the test compound
RET(S891A) = RET(S891A) (Homo sapiens (Human), UniProt P07949, S891A); conditions: read-out: % Inhibition at 10 μM of the test compound
MET(M1250T) = MET(M1250T) (Homo sapiens (Human), UniProt P08581, M1250T); conditions: read-out: % Inhibition at 10 μM of the test compound
SRC = SRC (Homo sapiens (Human), UniProt P12931); conditions: read-out: % Inhibition at 10 μM of the test compound
PIM1 = PIM1 (Homo sapiens (Human), UniProt P11309); conditions: read-out: % Inhibition at 10 μM of the test compound
MAP3K5_Cascade = MAP3K5_Cascade (Homo sapiens (Human), UniProt Q99683); conditions: read-out: % Inhibition at 10 μM of the test compound
LOK = LOK (Homo sapiens (Human), UniProt O94804); conditions: read-out: % Inhibition at 10 μM of the test compound
EPHA1 = EPHA1 (Homo sapiens (Human), UniProt P21709); conditions: read-out: % Inhibition at 10 μM of the test compound
ROCK1 = ROCK1 (Homo sapiens (Human), UniProt Q13464); conditions: read-out: % Inhibition at 10 μM of the test compound
JNK1 = JNK1 (Homo sapiens (Human), UniProt P45983); conditions: read-out: % Inhibition at 10 μM of the test compound
MAP2K6_Cascade = MAP2K6_Cascade (Homo sapiens (Human), UniProt P52564); conditions: read-out: % Inhibition at 10 μM of the test compound
PDHK2 = PDHK2 (Homo sapiens (Human), UniProt Q15119); conditions: read-out: % Inhibition at 10 μM of the test compound
Erk5 = Erk5 (Homo sapiens (Human), UniProt Q13164); conditions: read-out: % Inhibition at 10 μM of the test compound
LCK = LCK (Homo sapiens (Human), UniProt P06239); conditions: read-out: % Inhibition at 10 μM of the test compound
JAK3 = JAK3 (Homo sapiens (Human), UniProt P52333); conditions: read-out: % Inhibition at 10 μM of the test compound
PKCδ = PKCδ (Homo sapiens (Human), UniProt Q05655); conditions: read-out: % Inhibition at 10 μM of the test compound
EML4-ALK = EML4-ALK (Homo sapiens (Human), UniProt Q9UM73); conditions: read-out: % Inhibition at 10 μM of the test compound
SGK = SGK (Homo sapiens (Human), UniProt O00141); conditions: read-out: % Inhibition at 10 μM of the test compound
PDK1 = PDK1 (Homo sapiens (Human), UniProt O15530); conditions: read-out: % Inhibition at 10 μM of the test compound
FGFR3(K650E) = FGFR3(K650E) (Homo sapiens (Human), UniProt P22607, K650E); conditions: read-out: % Inhibition at 10 μM of the test compound
NDR2 = NDR2 (Homo sapiens (Human), UniProt Q9Y2H1); conditions: read-out: % Inhibition at 10 μM of the test compound
Erk1 = Erk1 (Homo sapiens (Human), UniProt P27361); conditions: read-out: % Inhibition at 10 μM of the test compound
ACK = ACK (Homo sapiens (Human), UniProt Q07912); conditions: read-out: % Inhibition at 10 μM of the test compound
KIT(D816Y) = KIT(D816Y) (Homo sapiens (Human), UniProt P10721, D816Y); conditions: read-out: % Inhibition at 10 μM of the test compound
COT_Cascade = test system: COT_Cascade
Method: Briefly, a selection of compounds was screened against a panel of kinases at a single concentration of 10 μM. […] This was completed using one of two assays, depending on the kinase being examined: 1) IMAP Assay. A solution of 4× inhibitor, 4× substrate/ATP/metal solution and 2× kinase solution was prepared with assay buffer (20 mM HEPES, 0.01% Tween-20, 2 mM DTT, pH 7.4) and mixed, then incubated in 384-well black plates for 1 hour at room temperature. The IMAP binding reagent (IMAP Screening Express kit; Molecular Devices) was added to each well and incubated for 30 minutes. […] 2) Off-Chip Mobility Shift Assay (MSA). A solution of 4× inhibitor, 4× substrate/ATP/metal solution and 2× kinase solution was prepared with assay buffer (20 mM HEPES, 0.01% Triton X-100, 2 mM DTT, pH 7.5) and mixed, then incubated in 384-well plates for 1 or 5 hours depending on the kinase, at room temperature. Termination buffer (QuickScout Screening assist MSA; Carna Biosciences) was added to each well. The entire reaction mixture was then applied to a LabChip3000 system (Caliper Life Science), and the product and substrate peptide peaks were separated and quantified. […] The entire reaction mixture was then applied to a LabChip3000 system (Caliper Life Science), and the product and substrate peptide peaks were separated and quantified.

SYK = SYK (Homo sapiens (Human), UniProt P43405); conditions: read-out: % Inhibition at 10 μM of the test compound
EPHB1 = EPHB1 (Homo sapiens (Human), UniProt P54762); conditions: read-out: % Inhibition at 10 μM of the test compound
MRCKβ = MRCKβ (Homo sapiens (Human), UniProt Q9Y5S2); conditions: read-out: % Inhibition at 10 μM of the test compound
HIPK4 = HIPK4 (Homo sapiens (Human), UniProt Q8NE63); conditions: read-out: % Inhibition at 10 μM of the test compound
LYNa = LYNa (Homo sapiens (Human), UniProt P07948); conditions: read-out: % Inhibition at 10 μM of the test compound
PHKG2 = PHKG2 (Homo sapiens (Human), UniProt P15735); conditions: read-out: % Inhibition at 10 μM of the test compound

Chain of HIPK4 (Q8NE63 whole entry): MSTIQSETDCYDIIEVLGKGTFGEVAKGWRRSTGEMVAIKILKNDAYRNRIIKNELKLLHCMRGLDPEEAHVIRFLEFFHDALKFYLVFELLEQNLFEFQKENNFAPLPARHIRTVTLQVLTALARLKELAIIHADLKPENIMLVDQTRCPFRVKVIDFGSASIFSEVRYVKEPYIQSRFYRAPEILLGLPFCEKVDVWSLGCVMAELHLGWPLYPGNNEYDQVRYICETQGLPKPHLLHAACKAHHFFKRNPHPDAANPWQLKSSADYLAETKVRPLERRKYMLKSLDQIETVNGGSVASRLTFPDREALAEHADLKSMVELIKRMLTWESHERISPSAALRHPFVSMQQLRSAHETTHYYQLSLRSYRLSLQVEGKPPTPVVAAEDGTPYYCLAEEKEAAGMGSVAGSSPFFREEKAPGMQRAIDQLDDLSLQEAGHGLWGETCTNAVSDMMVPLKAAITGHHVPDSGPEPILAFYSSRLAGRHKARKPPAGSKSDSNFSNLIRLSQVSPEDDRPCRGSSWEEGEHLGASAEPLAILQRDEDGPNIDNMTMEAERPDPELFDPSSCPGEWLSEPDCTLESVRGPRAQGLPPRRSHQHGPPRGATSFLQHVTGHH
Chain of BLK (P51451 whole entry): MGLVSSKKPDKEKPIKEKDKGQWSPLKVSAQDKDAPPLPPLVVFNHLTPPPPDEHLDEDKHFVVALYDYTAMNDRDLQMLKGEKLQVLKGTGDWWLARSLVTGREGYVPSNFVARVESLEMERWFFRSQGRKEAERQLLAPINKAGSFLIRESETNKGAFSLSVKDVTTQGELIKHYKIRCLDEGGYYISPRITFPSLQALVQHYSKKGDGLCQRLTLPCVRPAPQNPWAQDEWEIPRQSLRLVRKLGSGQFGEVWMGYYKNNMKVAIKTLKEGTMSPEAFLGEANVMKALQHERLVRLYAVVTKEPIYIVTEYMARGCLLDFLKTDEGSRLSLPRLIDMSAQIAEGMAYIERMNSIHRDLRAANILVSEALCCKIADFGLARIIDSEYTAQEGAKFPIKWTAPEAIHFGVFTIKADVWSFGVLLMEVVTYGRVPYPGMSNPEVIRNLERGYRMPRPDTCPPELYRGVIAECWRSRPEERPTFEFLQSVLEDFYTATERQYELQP
Chain of JAK3 (P52333 whole entry): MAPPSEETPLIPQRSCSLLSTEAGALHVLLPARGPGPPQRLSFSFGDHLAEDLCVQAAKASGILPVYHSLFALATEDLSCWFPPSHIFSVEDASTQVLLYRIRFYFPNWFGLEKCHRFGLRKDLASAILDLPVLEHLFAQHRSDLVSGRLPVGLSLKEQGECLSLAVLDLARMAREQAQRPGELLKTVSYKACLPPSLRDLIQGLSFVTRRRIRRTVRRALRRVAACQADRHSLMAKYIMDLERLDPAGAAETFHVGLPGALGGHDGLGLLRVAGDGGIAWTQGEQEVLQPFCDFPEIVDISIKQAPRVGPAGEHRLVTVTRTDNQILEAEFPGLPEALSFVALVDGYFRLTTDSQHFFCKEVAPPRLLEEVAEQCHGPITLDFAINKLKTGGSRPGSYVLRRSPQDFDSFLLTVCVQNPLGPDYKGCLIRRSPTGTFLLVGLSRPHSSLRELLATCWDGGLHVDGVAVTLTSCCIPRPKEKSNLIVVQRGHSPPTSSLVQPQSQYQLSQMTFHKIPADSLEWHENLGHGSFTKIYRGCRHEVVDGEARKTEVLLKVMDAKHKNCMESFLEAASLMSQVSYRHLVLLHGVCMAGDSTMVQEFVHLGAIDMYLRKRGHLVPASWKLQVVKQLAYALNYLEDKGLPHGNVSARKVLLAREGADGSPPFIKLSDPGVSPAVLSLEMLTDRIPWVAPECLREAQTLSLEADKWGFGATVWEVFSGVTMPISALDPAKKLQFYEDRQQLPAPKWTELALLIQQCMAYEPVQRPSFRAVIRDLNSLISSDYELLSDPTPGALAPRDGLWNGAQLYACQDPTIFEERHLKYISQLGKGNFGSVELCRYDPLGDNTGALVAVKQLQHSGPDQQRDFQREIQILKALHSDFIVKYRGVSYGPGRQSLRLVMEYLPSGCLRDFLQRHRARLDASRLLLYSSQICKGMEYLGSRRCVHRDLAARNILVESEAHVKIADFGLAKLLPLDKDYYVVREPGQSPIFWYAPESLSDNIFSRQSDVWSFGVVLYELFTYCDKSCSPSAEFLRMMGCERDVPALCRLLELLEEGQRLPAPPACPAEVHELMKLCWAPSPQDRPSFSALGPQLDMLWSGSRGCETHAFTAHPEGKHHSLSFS
Chain of JNK1 (P45983 whole entry): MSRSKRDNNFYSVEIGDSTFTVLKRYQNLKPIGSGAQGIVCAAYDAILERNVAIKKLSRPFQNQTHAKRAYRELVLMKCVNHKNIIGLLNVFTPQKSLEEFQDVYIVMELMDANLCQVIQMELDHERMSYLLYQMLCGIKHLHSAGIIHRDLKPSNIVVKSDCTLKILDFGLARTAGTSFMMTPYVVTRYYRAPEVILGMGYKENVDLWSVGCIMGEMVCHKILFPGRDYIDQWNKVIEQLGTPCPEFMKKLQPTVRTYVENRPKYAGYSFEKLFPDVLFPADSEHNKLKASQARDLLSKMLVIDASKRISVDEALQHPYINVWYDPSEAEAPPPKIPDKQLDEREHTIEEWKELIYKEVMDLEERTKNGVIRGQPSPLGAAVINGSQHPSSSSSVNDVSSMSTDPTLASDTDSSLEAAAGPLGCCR
Chain of EML4-ALK (Q9UM73 other isoform, or with tags, fused parts or gaps): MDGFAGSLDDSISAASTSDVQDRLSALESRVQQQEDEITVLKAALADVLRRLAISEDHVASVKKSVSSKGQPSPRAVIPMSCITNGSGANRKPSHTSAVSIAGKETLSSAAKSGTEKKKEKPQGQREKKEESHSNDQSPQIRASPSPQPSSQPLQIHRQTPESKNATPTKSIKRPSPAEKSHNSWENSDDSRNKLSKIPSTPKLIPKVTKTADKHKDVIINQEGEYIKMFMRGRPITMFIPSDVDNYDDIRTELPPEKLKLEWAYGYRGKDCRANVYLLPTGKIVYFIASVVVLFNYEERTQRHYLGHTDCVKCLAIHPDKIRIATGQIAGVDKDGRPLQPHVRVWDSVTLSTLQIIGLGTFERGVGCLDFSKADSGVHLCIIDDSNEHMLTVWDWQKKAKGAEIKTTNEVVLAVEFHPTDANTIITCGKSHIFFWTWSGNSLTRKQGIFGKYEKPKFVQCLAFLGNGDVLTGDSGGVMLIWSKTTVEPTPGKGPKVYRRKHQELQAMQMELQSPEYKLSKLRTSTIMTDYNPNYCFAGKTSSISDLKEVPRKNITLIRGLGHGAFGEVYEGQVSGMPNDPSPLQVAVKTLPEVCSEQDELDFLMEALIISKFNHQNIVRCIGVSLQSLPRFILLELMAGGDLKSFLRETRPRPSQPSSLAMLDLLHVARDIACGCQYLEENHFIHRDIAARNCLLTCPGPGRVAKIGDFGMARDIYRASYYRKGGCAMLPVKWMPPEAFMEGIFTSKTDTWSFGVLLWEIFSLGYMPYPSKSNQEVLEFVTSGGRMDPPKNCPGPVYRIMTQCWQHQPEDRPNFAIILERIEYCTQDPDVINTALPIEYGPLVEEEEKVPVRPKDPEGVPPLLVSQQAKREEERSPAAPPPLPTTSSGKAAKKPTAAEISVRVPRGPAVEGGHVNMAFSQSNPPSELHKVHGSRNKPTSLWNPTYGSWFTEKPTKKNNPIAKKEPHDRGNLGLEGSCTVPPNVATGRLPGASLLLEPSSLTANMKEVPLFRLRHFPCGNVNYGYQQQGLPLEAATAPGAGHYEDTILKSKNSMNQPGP
Chain of MAP3K5_Cascade (Q99683 whole entry): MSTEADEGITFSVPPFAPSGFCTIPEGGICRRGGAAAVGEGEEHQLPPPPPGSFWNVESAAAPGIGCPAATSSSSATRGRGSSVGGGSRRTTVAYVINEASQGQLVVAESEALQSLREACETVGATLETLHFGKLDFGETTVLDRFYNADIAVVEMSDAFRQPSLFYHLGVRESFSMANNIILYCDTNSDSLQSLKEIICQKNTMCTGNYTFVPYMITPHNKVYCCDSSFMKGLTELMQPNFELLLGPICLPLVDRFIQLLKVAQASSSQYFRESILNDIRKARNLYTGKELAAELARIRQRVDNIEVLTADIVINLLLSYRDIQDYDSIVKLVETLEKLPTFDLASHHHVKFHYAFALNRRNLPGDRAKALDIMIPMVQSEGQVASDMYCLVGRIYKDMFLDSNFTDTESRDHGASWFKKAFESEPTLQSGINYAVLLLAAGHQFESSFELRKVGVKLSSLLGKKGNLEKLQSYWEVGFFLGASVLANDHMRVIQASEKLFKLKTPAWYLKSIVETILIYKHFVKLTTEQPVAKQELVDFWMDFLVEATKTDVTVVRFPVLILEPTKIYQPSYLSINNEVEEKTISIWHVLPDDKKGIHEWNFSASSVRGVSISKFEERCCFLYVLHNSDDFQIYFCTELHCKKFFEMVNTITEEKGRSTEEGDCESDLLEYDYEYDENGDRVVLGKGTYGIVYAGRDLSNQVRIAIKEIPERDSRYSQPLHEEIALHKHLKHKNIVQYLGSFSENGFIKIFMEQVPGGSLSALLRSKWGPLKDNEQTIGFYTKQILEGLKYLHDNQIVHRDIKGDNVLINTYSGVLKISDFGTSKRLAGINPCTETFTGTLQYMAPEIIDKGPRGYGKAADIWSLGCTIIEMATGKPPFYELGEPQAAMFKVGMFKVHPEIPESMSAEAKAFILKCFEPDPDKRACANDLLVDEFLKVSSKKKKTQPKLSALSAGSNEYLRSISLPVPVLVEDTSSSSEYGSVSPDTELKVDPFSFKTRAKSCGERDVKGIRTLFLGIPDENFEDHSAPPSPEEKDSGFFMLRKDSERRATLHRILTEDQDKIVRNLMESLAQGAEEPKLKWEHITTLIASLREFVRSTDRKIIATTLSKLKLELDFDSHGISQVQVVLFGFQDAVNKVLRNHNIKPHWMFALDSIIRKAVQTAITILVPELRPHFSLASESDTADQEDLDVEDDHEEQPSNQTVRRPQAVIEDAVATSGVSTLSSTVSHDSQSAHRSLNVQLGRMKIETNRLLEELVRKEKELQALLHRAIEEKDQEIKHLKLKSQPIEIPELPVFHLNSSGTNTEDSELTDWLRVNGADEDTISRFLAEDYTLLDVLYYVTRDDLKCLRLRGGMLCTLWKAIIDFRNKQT

CCC1(c2ccccc2)C2=C(CC(C)(C)CC2=O)Nc2ncsc21 (centres unmarked) [Compound 1, 9-Ethyl-6,6-dimethyl-9-phenyl-5,6,7,9-tetrahydrothiazolo[4,5-b]quinolin-8(4H)-one]
inhibition at 10 µM (BLK): 5%
inhibition at 10 µM (SPHK1): -6.5%
inhibition at 10 µM (RET(S891A)): 1.4%
inhibition at 10 µM (MET(M1250T)): -4.2%
inhibition at 10 µM (SRC): -2.2%
inhibition at 10 µM (PIM1): 0%
inhibition at 10 µM (MAP3K5_Cascade): 5.4%
inhibition at 10 µM (LOK): -4.7%
inhibition at 10 µM (EPHA1): 2%
inhibition at 10 µM (ROCK1): 7%
inhibition at 10 µM (JNK1): -7.3%
inhibition at 10 µM (MAP2K6_Cascade): 5.6%
inhibition at 10 µM (PDHK2): 0.1%
inhibition at 10 µM (Erk5): -0.6%
inhibition at 10 µM (LCK): 1.7%
inhibition at 10 µM (JAK3): 6.9%
inhibition at 10 µM (PKCδ): 2.4%
inhibition at 10 µM (EML4-ALK): 2.9%
inhibition at 10 µM (SGK): -1.7%
inhibition at 10 µM (PDK1): -4%
inhibition at 10 µM (FGFR3(K650E)): -3%
inhibition at 10 µM (NDR2): -1.2%
inhibition at 10 µM (Erk1): 5.6%
inhibition at 10 µM (ACK): -4.1%
inhibition at 10 µM (KIT(D816Y)): -4.7%
% Inhibition at 10 μM of the test compound (COT_Cascade): −1.5%
inhibition at 10 µM (SYK): -5.8%
inhibition at 10 µM (EPHB1): -0.4%
inhibition at 10 µM (MRCKβ): 2%
inhibition at 10 µM (HIPK4): -12.5%
inhibition at 10 µM (LYNa): 6%
inhibition at 10 µM (PHKG2): -5%
